Assay results taken from article PMC11726150, “Pre‐ADMET studies of 5‐(3′,4′‐dihydroxyphenyl)‐γ‐valerolactone, the bioactive intestinal metabolite of proanthocyanidins” (Archiv Der Pharmazie, 2024).
Entries after “also recorded” stand apart in the source; their conditions may differ. Where two headings read alike, the source gives them in different places.

Tests used:
MTT cell viability assay [1] = type: cell-based, human; conditions: human, Caco2 cells; Caco2, 1.5–50 µM, 6 h exposure; read-out: cells remaining viable
Procedure: (§1) The effect of test samples on cell viability was measured using an MTT assay. Briefly, exponentially growing 2 × 10^4 cells/200 μL were seeded in 96‐well plates and allowed to grow until reaching their differentiation state. Cells were treated with different concentrations of VL (50–1.6 µM) and positive control camptothecin (30–1 μM) serially diluted in serum‐free medium. After incubation, 10 μL of MTT dye (5 mg/mL stock in PBS) was added to each well, and plates were additionally incubated for 4 h. Further, media were aspirated, and cells were washed with 100 μL of phosphate buffer saline. The formazan blue crystals formed by viable cells were dissolved in 150 μL of DMSO, and the absorbance was measured at 580 nm on a Bio‐Tek, Synergy HT Multi‐Mode, plate reader. The % decrease in viability of sample‐treated cells was calculated compared with vehicle‐treated cells.^[ [46] ^]

HepG2 cells = assay: MTT cell viability assay; type: cell-based, human; conditions: HepG2, 1.5–50 µM, up to 24 and 48 h
Procedure: as §1

Caco2 cells = assay: MTT cell viability assay; type: cell-based, human; conditions: Caco2, 1.5–50 µM, up to 24 and 48 h
Procedure: as §1

LS174T cells = assay: MTT cell viability assay; type: cell-based, human; conditions: 1.5–50 µM, up to 24 and 48 h
Procedure: as §1

[2] = Metabolic stability assay with human S9 liver fraction; type: in vitro ADME
Procedure: (§2) HLMs and S9 fractions were used to determine, respectively, phases I and II metabolism of VL. A mixture of the activating cofactors (NADP^+ and UDPGA) and enzymes (G6PO4 and G6PDH) were used to stimulate the metabolism; in the microsome assay UDPGA was not needed. The final concentrations of cofactors NADPH and UDPGA were 1 mM each, while for the enzymes G6PO4 and G6PDH were 10 mM and 2 U/mL, respectively. The phosphate buffer was prepared as a 100 mM solution, pH 7.4, containing 10 mM magnesium chloride in deionized water. Testosterone and 7‐hydroxycoumarin were used as positive controls for phases I and II metabolism, and stock reference solutions of controls and VL were prepared, respectively, at 5 mM and 10 mM concentration in DMSO, and then diluted to a final test concentration of 10 µM. S9 fraction or microsome, final concentration 1 mg/mL, were preincubated with a test compound for 5 min at 37°C in the phosphate buffer, pH 7.4, and then the reactions were initiated by adding the cofactor mixture. A negative control sample was prepared replacing the reaction enzymes with water in the presence of a reaction mixture and test compound VL. At time points 0, 10, 20, 30, 45, 60, 90, and 120 min, 100 µL aliquots of the sample mixture were removed and quenched by the addition of two volumes of ice‐cold 50:50 ACN:MeOH containing the internal standard (cinnamic acid‐d6, 300 ng/mL final concentration). The quenched samples were then stored at −80°C overnight and defrosted before analysis, sonicated for 10 min, and centrifuged at 14,000 rpm for 15 min at 4°C to sediment the precipitated proteins before injection onto ultra performance liquid chromatography‐mass/mass (UPLC‐MS/MS) for analysis. T ½ was calculated using the interpolating point method using the nonlinear fit option of GraphPad Prism 8, while intrinsic clearance CL'int (mL/min/kg) was calculated as written in Equation (4) and as reported previously:^[ [23] ^] (4) CL^′int=0.693×Dose/T½.

PXR [3] = molecular target: T1, PXR (Homo sapiens, UniProt O75469); type: cell-based; design: expressed in transfected cells; host or cells: LS174T cells, transient electroporation; conditions: LS174T cells, all concentrations tested (1.5–50 μM), 24 h
T1 sequence (O75469 1-434): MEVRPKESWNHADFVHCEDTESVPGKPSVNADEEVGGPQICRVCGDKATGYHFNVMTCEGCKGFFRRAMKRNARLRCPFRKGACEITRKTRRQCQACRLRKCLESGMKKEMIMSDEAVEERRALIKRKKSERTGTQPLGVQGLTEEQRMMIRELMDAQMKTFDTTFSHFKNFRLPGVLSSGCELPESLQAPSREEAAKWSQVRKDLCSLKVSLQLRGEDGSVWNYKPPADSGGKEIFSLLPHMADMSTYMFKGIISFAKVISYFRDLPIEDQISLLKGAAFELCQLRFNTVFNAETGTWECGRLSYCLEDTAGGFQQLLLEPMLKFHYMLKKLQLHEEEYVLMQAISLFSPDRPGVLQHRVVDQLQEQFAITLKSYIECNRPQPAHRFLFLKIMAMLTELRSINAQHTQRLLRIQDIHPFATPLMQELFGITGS
Procedure: (§3) The PXR activation potential of VL was determined in transiently transfected HepG2 and LS174T cells as described earlier.^[ [50] ^] In brief, 24‐h‐old cells having 70%−80% confluency were trypsinized and transfected with pSG5‐hPXR (25 μg) and PCR‐5 (25 μg) plasmid DNA by electroporation at 180 V (1 pulse for 70 ms). Cells were incubated at room temperature for 8 min and floating dead cells were carefully removed. Cells were seeded in 96‐well plates at a density of 50,000 cells/well. […] Following 24 h of incubation, the culture medium was aspirated and 40 μL of luciferase reagent (Promega Corporation) was added to each well. Luminescence was measured using a Spectramax M5 plate reader (Molecular Devices) and the fold increase in luciferase activity among sample‐treated cells was calculated in comparison with the vehicle‐treated (DMSO) cells.

PXR [4] = molecular target: T1, PXR; type: cell-based; design: expressed in transfected cells; host or cells: HepG2 and LS174T cells, transient electroporation; conditions: HepG2 cells, all concentrations tested (1.5–50 μM), 24 h
Procedure: as §3

MTT cell viability assay [5] = type: cell-based, canine; conditions: dog, Wt-MDCK cells, 1.5–50 µM, 6 h exposure, read-out: cells remaining viable
Procedure: as §1

[6] = Metabolic stability assay with human liver microsomes; type: in vitro ADME
Procedure: as §2, with “At time points 0, 10, 20, 30, 45, 60, 90, and 120 min, 100 µL aliquots of the sample mixture were removed and quenched by the addition of two volumes of ice‐cold 50:50 ACN:MeOH containing the internal standard (cinnamic acid‐d6, 300 ng/mL final concentration). The quenched samples were then stored at −80°C overnight and defrosted before analysis, sonicated for 10 min, and centrifuged at 14,000 rpm for 15 min at 4°C to sediment the precipitated proteins before injection onto ultra performance liquid chromatography‐mass/mass (UPLC‐MS/MS) for analysis.” left out, “(4) CL^′int=0.693×Dose/T½.” left out

## O=C1CCC(Cc2ccc(O)c(O)c2)O1 (stereo not shown) [VL, 5‐(3′,4′‐dihydroxyphenyl)‐γ‐valerolactone]
MTT cell viability assay [1]
  viability at 6 h: > 90%
HepG2 cells
  effect on cell viability: no significant effect
Caco2 cells
  effect on cell viability: no significant effect
LS174T cells
  effect on cell viability: no significant effect
[2]; S9 liver fraction, 120 min
  VL metabolized in the liver fraction: 70.83%
[2]; human S9 fraction 1 mg/mL, 10 µM
  intrinsic clearance: 0.784 µM/min
[2]; liver S9 fraction, pH 7.4, human S9 fraction 1 mg/mL, 10 µM, NADPH + UDPGA, read-out: half‐life t ½
  half-life at 10 µM: 8.72 min
[2]; reaction enzymes replaced with water, data not shown
  stability under negative control experimental conditions: stable
PXR [3]
  PXR transcriptional activity, fold increase vs vehicle: does not increase the PXR activity; also recorded: < twofold
PXR [4]
  PXR transcriptional activity, fold increase vs vehicle: does not increase the PXR activity; also recorded: < twofold
MTT cell viability assay [5]
  viability at 6 h: > 90%
[6]; HLM 1 mg/mL, 10 µM
  half‐life t ½: 23.084 min
[6]; human, liver microsomes, pH 7.4, HLM 1 mg/mL, read-out: half‐life t ½
  half-life at 10 µM: 23.1 min
